Reference: patent publication EP0894433B1, “A method of preparing a biocidal material” (EASTMAN KODAK COMPANY, priority 1997, dated 1999)

Assay: Partition coefficient between octanol and water by UV/visible absorption
Type: physicochemical
Settings: partition coefficient n-octanol/water, 25°C; read-out: P
Experimental: As used herein, it provides a measure of the hydrophobicity of the biocide.
A variety of commercial and hydrophobically-modified biocides have been studied. Partition coefficients between octanol and water have been determined at 25°C by UV/visible absorption. First, the calibration curve of each biocide was determined as optical density (ODabs) versus concentration of biocide in µg/g (ppm) of water for the predominantly water-soluble materials and µg/g of octanol for the predominantly oil-soluble biocides.
A known amount of biocide was placed in a glass vessel containing either 10ml of water or 10ml of octanol depending on the solubility of the biocide. An equal volume of the other solvent was added and the glass vessel sealed. The vessel was shaken vigorously for a few minutes and then every few hours for more than 48 hours. Each mixture was placed in a sealed separating funnel and left for a further 24 hours. The water phase of each mixture was removed and the UV/visible spectra run against water with appropriate dilutions to bring absorbance between 0 and 1.5 for the commercial biocides and the octanol fractions were examined for the hydrophobically modified biocides.

| SMILES | logP |
| --- | --- |
| CCCCCCCCn1sc2ccccc2c1=O [Compound 1] | > 2.52 |
| CCCCCCCCCCCCCCCCn1sc2ccccc2c1=O [Compound 2] | > 2.11 |
| CCCCCCCCn1sc(Cl)cc1=O [Compound 3] | > 2.75 |
| CCCCCCCCCCCCCCCCCCn1sc(Cl)cc1=O [Compound 4] | > 2.68 |
| CCCCCCCCCCCC[N+](C)(C)CCOc1ccccc1 [Domiphen™] | ~1.7 |
| Cn1sc2c(c1=O)CCC2 [Promexal™] | ~0.653 |
